{
  "source": "patent US7875600B2",
  "about": "“Pyrimidine compounds as purine receptor antagonist” (Vernalis (R&D) Limited, priority 2004, dated 2011)",
  "key": {"cataleptic responses": {"tested_on": "cataleptic responses", "details": "cited from earlier work"}, "[1]": {"tested_on": "haloperidol-induced deficits in locomotor activity in mice", "assay": "Haloperidol-induced hypolocomotion model", "type": "in vivo", "details": "oral, dose of 30 mg/kg", "excerpt": "Haloperidol-Induced Hypolocomotion Model\nThis approach is also considered a valid method for screening drugs with potential antiparkinsonian effects. Thus, the ability of novel adenosine antagonists to block haloperidol-induced deficits in locomotor activity in mice can be used to assess both in vivo and potential antiparkinsonian efficacy.\nFemale TO mice (25-30 g) obtained from Harlan, UK, are used for all experiments. Animals are housed in groups of 8 [cage size—40 (width)×40 (length)×20 (height) cm] under 12 h light/dark cycle (lights on 08:00 hr), in a temperature (20±2° C.) and humidity (55±15%) controlled environment. Animals have free access to food and water, and are allowed at least 3 days to acclimatize after delivery before experimental use.\nLiquid injectable haloperidol (1 ml Serenance ampoules from Baker Norton, Harlow, Essex, each containing haloperidol BP 5 mg) are diluted to a final concentration of 0.02 mg/ml using saline. Test compounds are typically prepared as aqueous suspensions in 1% methyl cellulose. All compounds are administered orally in a volume of 10 ml/kg.\n1.5 h before testing, mice are administered 0.2 mg/kg haloperidol, a dose that reduces baseline locomotor activity by at least 50%. […] Horizontal locomotor activity is determined by placing the cages within a frame containing a 4×7 array of photocells linked to a computer, which tabulates beam breaks. […]"}, "[2]": {"biological_target": "human adenosine A2A receptors (Homo sapiens, UniProt P29274)", "sequence (P29274 whole entry)": "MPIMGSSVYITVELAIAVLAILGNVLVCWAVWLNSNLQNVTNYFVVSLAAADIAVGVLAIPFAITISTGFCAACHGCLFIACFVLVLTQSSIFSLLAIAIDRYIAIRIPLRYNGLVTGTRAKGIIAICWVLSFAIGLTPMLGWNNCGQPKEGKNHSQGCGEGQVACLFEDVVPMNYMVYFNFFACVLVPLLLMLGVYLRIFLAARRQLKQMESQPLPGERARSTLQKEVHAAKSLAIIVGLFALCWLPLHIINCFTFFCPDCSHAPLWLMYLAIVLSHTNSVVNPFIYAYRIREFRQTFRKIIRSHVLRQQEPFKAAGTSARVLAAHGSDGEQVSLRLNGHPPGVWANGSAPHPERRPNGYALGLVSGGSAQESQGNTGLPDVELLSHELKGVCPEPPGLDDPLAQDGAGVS", "assay": "Binding affinities at hA2A receptors, displacement of [3H]-CGS 21680", "details": "human adenosine A2A receptor, [3H]-CGS 21680 displacement", "excerpt": "Adenosine Receptor Binding Binding Affinities at hA2A Receptors\nThe compounds were examined in an assay measuring in vitro binding to human adenosine A2A receptors by determining the displacement of the adenosine A2A receptor selective radioligand [^3H]-CGS 21680 using standard techniques."}, "Parkinsonian patients": {"tested_on": "Parkinsonian patients", "details": "15 Parkinsonian patients, up to 12 weeks, 150 mg/day oral; cited from earlier work"}},
  "data": [
    {"smiles": "CCCn1c(=O)c2c(nc(/C=C/c3ccc(OC)c(OC)c3)n2C)n(CCC)c1=O", "note": "[KF 17837, (E)-8-(3,4-dimethoxystyryl)-1,3-dipropyl-7-methylxanthine]", "values": [
      {"measurement": "anticataleptic effects of a subthreshold dose of L-DOPA plus benserazide", "setting": "cataleptic responses; in vivo", "result": "potentiated"},
      {"measurement": "catalepsy induced by haloperidol and reserpine", "setting": "cataleptic responses; in vivo", "result": "reduced"},
      {"measurement": "cataleptic responses induced by intracerebroventricular CGS 21680", "setting": "cataleptic responses; oral administration", "result": "significantly ameliorated"}
    ]},
    {"smiles": "Nc1nc(C(=O)NCc2ccccc2F)cc(-c2ccco2)n1", "note": "[Example 1, 2-Amino-N-(2-fluorobenzyl)-6-(2-furyl)pyrimidine-4-carboxamide]", "values": [
      {"measurement": "activity in haloperidol-induced hypolocomotion model", "setting": "[1]", "result": "orally active"},
      {"measurement": "Ki", "setting": "[2]", "result": "< 0.05", "unit": "µM"}
    ]},
    {"smiles": "Cn1c(=O)c2[nH]cnc2n(C)c1=O", "note": "[theophylline, 1,3-dimethylxanthine]", "values": [
      {"measurement": "mean objective disability scores", "setting": "Parkinsonian patients", "result": "significant improvements"}
    ]}
  ]
}
